Assay results: patent US20220323406A1, “METHODS AND COMPOSITIONS FOR DIFFERENTIATING STEM CELLS” (Massachusetts Institute of Technology, priority 2019, published 2022)

Key:
Conditions in all cases: primary screen
[1] = test system: ENR+CD organoids; test: Primary screen: ATP (CellTiter-Glo 3D, CTG) cell number/viability, 2.5-D 384-well ENR+CD organoids;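 further: compounds given at plating and again on day 3 over a 6-day differentiation from ENR+CV stem-cell-enriched precursors, ATP measured on day 6, plate median as control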
[2] = test system: ENR+CD organoids (ISC to Paneth cell differentiation); test: Primary screen: basal (non-stimulated) lysozyme secretion LYZ.NS, 2.5-D 384-well ENR+CD organoid differentiation; assay type: cell-based, mouse
Description: (§1) High-throughput screening.

[3] = test system: ENR+CD organoids (ISC to Paneth cell differentiation); test: Primary screen: CCh-stimulated lysozyme secretion LYZ.S, 2.5-D 384-well ENR+CD organoid differentiation; assay type: cell-based, mouse
Description: as §1

| Structure (SMILES) | Dose.FC.CTG (log2 fold change) ([1]; dose 0.08 uM) | Dose.FC.CTG (log2 fold change) ([1]; dose 0.40 uM) | Dose.FC.CTG (log2 fold change) ([1]; dose 2.00 uM) | Dose.FC.CTG (log2 fold change) ([1]; dose 10.00 uM) | Dose.FC.LYZ.NS (log2 fold change) ([2]; dose 0.08 uM) | Z.LYZ.NS (standard z score) ([2]; dose 0.08 uM) | Dose.FC.LYZ.NS (log2 fold change) ([2]; dose 0.40 uM) | Z.LYZ.NS (standard z score) ([2]; dose 0.40 uM) | Dose.FC.LYZ.NS (log2 fold change) ([2]; dose 2.00 uM) | Z.LYZ.NS (standard z score) ([2]; dose 2.00 uM) | Dose.FC.LYZ.NS (log2 fold change) ([2]; dose 10.00 uM) | Z.LYZ.NS (standard z score) ([2]; dose 10.00 uM) | Dose.FC.LYZ.S (log2 fold change) ([3]; dose 0.08 uM) | Dose.FC.LYZ.S (log2 fold change) ([3]; dose 0.40 uM) | Dose.FC.LYZ.S (log2 fold change) ([3]; dose 2.00 uM) | Dose.FC.LYZ.S (log2 fold change) ([3]; dose 10.00 uM) | Z.CTG (standard z score) ([1]; dose 0.08 uM) | Z.CTG (standard z score) ([1]; dose 0.40 uM) | Z.CTG (standard z score) ([1]; dose 2.00 uM) | Z.CTG (standard z score) ([1]; dose 10.00 uM) |
| --- | --- | --- | --- | --- | --- | --- | --- | --- | --- | --- | --- | --- | --- | --- | --- | --- | --- | --- | --- | --- |
| CCc1c2c(nc3ccc(OC(=O)N4CCC(N5CCCCC5)CC4)cc13)-c1cc3c(c(=O)n1C2)COC(=O)[C@]3(O)CC [Irinotecan] | −0.111 | −0.784 | −0.785 | −1.235 | −0.031 | −0.272 | −0.072 | −0.630 | −0.170 | −1.476 | −0.163 | −1.417 | −0.004 | −0.145 | −0.247 | −0.251 |  |  |  |  |
| Cc1ccc(C(=O)N(CCCN)[C@@H](c2nc3cc(Cl)ccc3c(=O)n2Cc2ccccc2)C(C)C)cc1 [Ispinesib (SB-715992)] | −0.323 | −0.518 | −0.511 | −0.713 | −0.222 | −1.931 | −0.191 | −1.663 | −0.196 | −1.709 | −0.201 | −1.752 | −0.271 | −0.296 | −0.287 | −0.286 | −0.772 | −1.238 | −1.220 | −1.704 |
| CCn1c(=O)c2c(nc(/C=C/c3ccc(OC)c(OC)c3)n2C)n(CC)c1=O [Istradefylline] | −0.045 | 0.066 | −0.157 | −0.038 | −0.015 | −0.131 | −0.035 | −0.304 | −0.003 | −0.022 | −0.041 | −0.353 | −0.029 | −0.087 | −0.096 | −0.057 |  |  |  |  |
| CC(C)(C)c1cc(C(C)(C)C)c(NC(=O)c2c[nH]c3ccccc3c2=O)cc1O [Ivacaftor (VX-770)] | 0.234 | 0.145 | −0.148 | −0.470 | 0.099 | 0.864 | 0.127 | 1.109 | 0.082 | 0.717 | −0.142 | −1.240 | 0.132 | 0.189 | 0.019 | −0.253 | 0.558 | 0.347 | −0.354 | −1.123 |
| Clc1ccc(N/N=C(\c2ccccc2)c2ccccn2)nc1 [JIB-04] | 0.254 | 0.108 | 0.092 | −0.181 | 0.178 | 1.549 | 0.030 | 0.264 | 0.006 | 0.048 | −0.153 | −1.330 | 0.203 | 0.084 | −0.056 | −0.085 | 0.607 | 0.258 | 0.219 | −0.433 |
| O=C(Nc1ccccc1)N1CCN(c2nc(-c3ccccc3)ns2)CC1 [JNJ-1661010] | −0.094 | −0.262 | −0.055 | −0.145 | 0.122 | 1.066 | 0.075 | 0.653 | 0.103 | 0.897 | 0.047 | 0.406 | 0.135 | 0.041 | −0.063 | −0.068 | −0.225 | −0.625 | −0.131 | −0.346 |
| Cc1ccc(NCCCc2ccccc2)c(N)c1 [JSH-23] | 0.193 | 0.230 | 0.074 | 0.046 | 0.054 | 0.474 | 0.079 | 0.688 | −0.002 | −0.017 | −0.046 | −0.399 | 0.164 | 0.106 | 0.005 | −0.026 | 0.462 | 0.548 | 0.176 | 0.110 |
| COc1cc(-c2ncn(/C=C\C(=O)OC(C)C)n2)cc(C(F)(F)F)c1 [KPT-185] | 0.116 | 0.104 | −0.995 | −0.855 | −0.006 | −0.049 | 0.097 | 0.846 | −0.209 | −1.820 | −0.085 | −0.744 | −0.015 | 0.220 | −0.322 | −0.153 | 0.277 | 0.248 | −2.377 | −2.041 |
| O=C(/C=C\n1cnc(-c2cc(C(F)(F)F)cc(C(F)(F)F)c2)n1)N1CC(F)(F)C1 [KPT-276] | 0.167 | −0.044 | −0.413 | −0.703 | 0.056 | 0.492 | 0.086 | 0.746 | −0.224 | −1.947 | −0.256 | −2.230 | 0.133 | 0.148 | −0.327 | −0.361 | 0.399 | −0.104 | −0.986 | −1.680 |
| C[C@@H]1CN(CC(=O)Nc2ccc3c(c2)Cc2cccc(-c4cc(=O)cc(N5CCOCC5)o4)c2S3)C[C@H](C)O1 [KU-60019] | 0.114 | 0.039 | 0.121 | −0.522 | 0.042 | 0.365 | −0.001 | −0.012 | −0.015 | −0.132 | −0.088 | −0.769 | 0.230 | 0.073 | −0.049 | −0.222 |  |  |  |  |
| COC(=O)CCSCc1ccc(-c2onc(C)c2NC(=O)OC(C)c2ccccc2Cl)cc1 (stereo not shown) [Ki16198] | −0.011 | −0.108 | −0.033 | 0.022 | 0.005 | 0.044 | −0.009 | −0.076 | 0.060 | 0.519 | −0.103 | −0.899 | 0.027 | 0.031 | −0.015 | −0.037 | −0.026 | −0.258 | −0.078 | 0.052 |
